# Assay results as given in ChEMBL document CHEMBL1132434, “Antitumor benzothiazoles. 8. Synthesis, metabolic formation, and biological properties of the C- and N-oxidation products of antitumor 2-(4-aminophenyl)benzothiazoles” (J Med Chem, 1999).
# pIC50: −log10 of the molar value.
# How the values were obtained:
# [1] = test system: MCF7; assay: In vitro cytotoxicity against MCF-7 human mammary carcinoma cells; assay type: functional, cell-based
# [2] = test system: 786-0; assay: Growth inhibition of the 786-O Renal cancer cell line for 2-day in vitro assay.; assay type: functional; details: Homo sapiens, 786-0, 48 h
# [3] = test system: A498; assay: Growth inhibition of the A498 Renal cancer cell line for 2-day in vitro assay.; assay type: functional; details: Homo sapiens, A498, 48 h
# [4] = test system: A549; assay: Growth inhibition of the A549/ATCC non-small cell lung cancer cell line for 2-day in vitro assay.; assay type: functional; details: Homo sapiens, A549, 48 h
# [5] = test system: ACHN; assay: Growth inhibition of the ACHN Renal cancer cell line for 2-day in vitro assay.; assay type: functional; details: Homo sapiens, 48 h
# [6] = test system: CCRF-CEM; assay: Growth inhibition of the CCRF-CEM leukemia cell line for 2-day in vitro assay.; assay type: functional; details: Homo sapiens, 48 h
# [7] = test system: COLO 205; assay: Growth inhibition of the COLO-205 colon cancer cell line for 2-day in vitro assay.; assay type: functional; details: Homo sapiens, COLO 205, 48 h
# [8] = test system: DU-145; assay: Growth inhibition of the DU-145 Prostate cancer cell line for 2-day in vitro assay.; assay type: functional; details: Homo sapiens, DU-145, 48 h
# [9] = test system: EKVX; assay: Growth inhibition of the EKVX non-small cell lung cancer cell line for 2-day in vitro assay.; assay type: functional; details: Homo sapiens, 48 h
# [10] = test system: HCT-15; assay: Growth inhibition of the HCT-15 colon cancer cell line for 2-day in vitro assay.; assay type: functional; details: Homo sapiens, HCT-15, 48 h
# [11] = test system: HL-60; assay: Growth inhibition of the HL-60(TB) leukemia cell line for 2-day in vitro assay.; assay type: functional; details: Homo sapiens, HL-60, 48 h
# [12] = test system: HOP-62; assay: Growth inhibition of the HOP-62 non-small cell lung cancer cell line for 2-day in vitro assay.; assay type: functional; details: Homo sapiens, HOP-62, 48 h
# [13] = test system: HCT-116; assay: Growth inhibition of the HCT116 colon cancer cell line for 2-day in vitro assay.; assay type: functional; details: Homo sapiens, HCT-116, 48 h
# [14] = test system: HCC 2998; assay: Growth inhibition of the HCC2998 colon cancer cell line for 2-day in vitro assay.; assay type: functional; details: Homo sapiens, HCC 2998, 48 h
# [15] = test system: Hs-578T; assay: Growth inhibition of the Hs 578.T Breast cancer cell line for 2-day in vitro assay.; assay type: functional; details: Homo sapiens, 48 h
# [16] = test system: K562; assay: Growth inhibition of the K-562 leukemia cell line for 2-day in vitro assay.; assay type: functional; details: Homo sapiens, K562, 48 h
# [17] = test system: KM12; assay: Growth inhibition of the KM12 colon cancer cell line for 2-day in vitro assay.; assay type: functional; details: Homo sapiens, KM12, 48 h
# [18] = test system: M14; assay: Growth inhibition of the M14 Melanoma cancer cell line for 2-day in vitro assay.; assay type: functional; details: Homo sapiens, M14, 48 h
# [19] = test system: LOX IMVI; assay: Growth inhibition of the LOX IMVI Melanoma cancer cell line for 2-day in vitro assay.; assay type: functional; details: Homo sapiens, 48 h
# [20] = test system: MDA-MB-435; assay: Growth inhibition of the […] Breast cancer cell line for 2-day in vitro assay.; assay type: functional; details: Homo sapiens, MDA-MB-435, 48 h
# [21] = test system: MDA-N; assay: Growth inhibition of the MDA-N Breast cancer cell line for 2-day in vitro assay.; assay type: functional; details: Homo sapiens, 48 h
# [22] = test system: Malme-3M; assay: Growth inhibition of the MALME-3M Melanoma cancer cell line for 2-day in vitro assay.; assay type: functional; details: Homo sapiens, 48 h
# [23] = test system: NCI-H522; assay: Growth inhibition of the NCI-H522 non-small cell lung cancer cell line for 2-day in vitro assay.; assay type: functional; details: Homo sapiens, NCI-H522, 48 h
# [24] = test system: NCI-H226; assay: Growth inhibition of the NCI-H226 non-small cell lung cancer cell line for 2-day in vitro assay.; assay type: functional; details: Homo sapiens, NCI-H226, 48 h
# [25] = test system: NCI-H322M; assay: Growth inhibition of the NCI-H322M non-small cell lung cancer cell line for 2-day in vitro assay.; assay type: functional; details: Homo sapiens, 48 h
# [26] = test system: OVCAR-8; assay: Growth inhibition of the OVCAR-8 Ovarian cancer cell line for 2-day in vitro assay.; assay type: functional; details: Homo sapiens, OVCAR-8, 48 h
# [27] = test system: OVCAR-4; assay: Growth inhibition of the OVCAR-4 Ovarian cancer cell line for 2-day in vitro assay.; assay type: functional; details: Homo sapiens, OVCAR-4, 48 h
# [28] = test system: NCI-H460; assay: Growth inhibition of the NCI-H460 non-small cell lung cancer cell line for 2-day in vitro assay.; assay type: functional; details: Homo sapiens, NCI-H460, 48 h
# [29] = test system: NCI-H23; assay: Growth inhibition of the NCI-H23 non-small cell lung cancer cell line for 2-day in vitro assay.; assay type: functional; details: Homo sapiens, NCI-H23, 48 h
# [30] = test system: PC-3; assay: Growth inhibition of the PC-3 Prostate cancer cell line for 2-day in vitro assay.; assay type: functional; details: Homo sapiens, PC-3, 48 h
# [31] = test system: RXF 393; assay: Growth inhibition of the RXF-393 Renal cancer cell line for 2-day in vitro assay.; assay type: functional; details: Homo sapiens, RXF 393, 48 h
# [32] = test system: SF-268; assay: Growth inhibition of the SF-268 CNS cancer cell line for 2-day in vitro assay.; assay type: functional; details: Homo sapiens, SF-268, 48 h
# [33] = test system: SK-MEL-2; assay: Growth inhibition of the SK-MEL-2 Melanoma cancer cell line for 2-day in vitro assay.; assay type: functional; details: Homo sapiens, SK-MEL-2, 48 h
# [34] = test system: SW-620; assay: Growth inhibition of the SW-620 colon cancer cell line for 2-day in vitro assay.; assay type: functional; details: Homo sapiens, SW-620, 48 h
# [35] = test system: SF-539; assay: Growth inhibition of the SF-539 CNS cancer cell line for 2-day in vitro assay.; assay type: functional; details: Homo sapiens, SF-539, 48 h
# [36] = test system: SN12C; assay: Growth inhibition of the SN12C Renal cancer cell line for 2-day in vitro assay.; assay type: functional; details: Homo sapiens, 48 h
# [37] = test system: SNB-19; assay: Growth inhibition of the SNB19 CNS cancer cell line for 2-day in vitro assay.; assay type: functional; details: Homo sapiens, SNB-19, 48 h
# [38] = test system: SF-295; assay: Growth inhibition of the SF-295 CNS cancer cell line for 2-day in vitro assay.; assay type: functional; details: Homo sapiens, SF-295, 48 h
# [39] = test system: SR; assay: Growth inhibition of the SR leukemia cell line for 2-day in vitro assay.; assay type: functional; details: Homo sapiens, 48 h
# [40] = test system: SK-MEL-5; assay: Growth inhibition of the SK-MEL-5 Melanoma cancer cell line for 2-day in vitro assay.; assay type: functional; details: Homo sapiens, SK-MEL-5, 48 h
# [41] = test system: SNB-75; assay: Growth inhibition of the SNB-75 CNS cancer cell line for 2-day in vitro assay.; assay type: functional; details: Homo sapiens, SNB-75, 48 h
# [42] = test system: SK-MEL-28; assay: Growth inhibition of the SK-MEL-28 Melanoma cancer cell line for 2-day in vitro assay.; assay type: functional; details: Homo sapiens, SK-MEL-28, 48 h
# [43] = test system: TK-10; assay: Growth inhibition of the TK-10 Renal cancer cell line for 2-day in vitro assay.; assay type: functional; details: Homo sapiens, TK-10, 48 h
# [44] = test system: T47D; assay: Growth inhibition of the T-47D Breast cancer cell line for 2-day in vitro assay.; assay type: functional; details: Homo sapiens, 48 h
# [45] = test system: UO-31; assay: Growth inhibition of the UO-31 Renal cancer cell line for 2-day in vitro assay.; assay type: functional; details: Homo sapiens, UO-31, 48 h
# [46] = test system: UACC-257; assay: Growth inhibition of the UACC-257 Melanoma cancer cell line for 2-day in vitro assay.; assay type: functional; details: Homo sapiens, UACC-257, 48 h
# [47] = test system: U-251; assay: Growth inhibition of the U251 CNS cancer cell line for 2-day in vitro assay.; assay type: functional; details: Homo sapiens, U-251, 48 h
# [48] = test system: UACC-62; assay: Growth inhibition of the UACC-62 Melanoma cancer cell line for 2-day in vitro assay.; assay type: functional; details: Homo sapiens, UACC-62, 48 h
# [49] = test system: NCI/ADR-RES; assay: Growth inhibition of the NCI/ADR-RES Breast cancer cell line for 2-day in vitro assay.; assay type: functional; details: Homo sapiens, 48 h
# [50] = test system: SK-OV-3; assay: Growth inhibition of the SK-OV-3 Ovarian cancer cell line for 2-day in vitro assay.; assay type: functional; details: Homo sapiens, SK-OV-3, 48 h
# [51] = test system: HT-29; assay: Growth inhibition of the HT-29 colon cancer cell line for 2-day in vitro assay.; assay type: functional; details: Homo sapiens, HT-29, 48 h
# [52] = test system: MDA-MB-231; assay: Growth inhibition of the […] Breast cancer cell line for 2-day in vitro assay.; assay type: functional; details: Homo sapiens, MDA-MB-231, 48 h
# [53] = test system: MCF7; assay: Growth inhibition of the MCF-7 Breast cancer cell line for 2-day in vitro assay.; assay type: functional; details: Homo sapiens, MCF7, 48 h
# [54] = test system: MOLT-4; assay: Growth inhibition of the MOLT-4 leukemia cell line for 2-day in vitro assay.; assay type: functional; details: Homo sapiens, MOLT-4, 48 h
# [55] = test system: BT-549; assay: Growth inhibition of the BT-549 Breast cancer cell line for 2-day in vitro assay.; assay type: functional; details: Homo sapiens, BT-549, 48 h
smiles,measurement,setting,value
CC(=O)ON(C(C)=O)c1ccc(-c2nc3ccccc3s2)cc1C,pIC50,[1],7.26
Cc1cc(-c2nc3ccccc3s2)ccc1N,GI50,[2],> 100 µM
same,GI50,[3],42.7 µM
same,GI50,[4],28.8 µM
same,GI50,[5],51.3 µM
same,GI50,[6],6.46 µM
same,GI50,[7],51.3 µM
same,GI50,[8],61.7 µM
same,GI50,[9],34.7 µM
same,GI50,[10],47.9 µM
same,GI50,[11],8.71 µM
same,GI50,[12],> 100 µM
same,GI50,[13],43.7 µM
same,GI50,[14],0.251 µM
same,GI50,[15],> 100 µM
same,GI50,[16],60.3 µM
same,GI50,[17],> 100 µM
same,GI50,[18],57.5 µM
same,GI50,[19],37.2 µM
same,GI50,[20],79.4 µM
same,pIC50,[1],> 9.00
same,GI50,[21],97.7 µM
same,GI50,[22],> 100 µM
same,GI50,[23],32.4 µM
same,GI50,[24],0.355 µM
same,GI50,[25],43.7 µM
same,GI50,[26],> 100 µM
same,GI50,[27],0.55 µM
same,GI50,[28],53.7 µM
same,GI50,[29],58.9 µM
same,GI50,[30],31.6 µM
same,GI50,[31],67.6 µM
same,GI50,[32],> 100 µM
same,GI50,[33],> 100 µM
same,GI50,[34],> 100 µM
same,GI50,[35],> 100 µM
same,GI50,[36],50.1 µM
same,GI50,[37],> 100 µM
same,GI50,[38],64.6 µM
same,GI50,[39],17.4 µM
same,GI50,[40],21.9 µM
same,GI50,[41],33.1 µM
same,GI50,[42],> 100 µM
same,GI50,[43],0.186 µM
same,GI50,[44],0.107 µM
same,GI50,[45],6.46 µM
same,GI50,[46],74.1 µM
same,GI50,[47],66.1 µM
same,GI50,[48],70.8 µM
same,GI50,[49],93.3 µM
same,GI50,[50],> 100 µM
same,GI50,[51],29.5 µM
same,GI50,[52],66.1 µM
same,GI50,[53],0.0316 µM
same,GI50,[54],19.5 µM
same,GI50,[55],66.1 µM
Nc1ccc(-c2nc3cc(O)ccc3s2)cc1,pIC50,[1],< 4.00
